Patent US20250230193A1, “CYCLIC COMPOUND HAVING SELECTIVE KRAS INHIBITORY EFFECT ON HRAS AND NRAS” (CHUGAI SEIYAKU KABUSHIKI KAISHA, priority 2022, published 2025)
Where a SMILES comes first, the peptide text is derived from it. Bridges are numbered along the chain shown (N, C = ends). [ ]: non-standard residue; d: D form. The star is where a group is joined. hPhe(3,5-F2-4-CF3) = N[C@@H](CCc1cc(F)c(C(F)(F)F)c(F)c1)C(=O)O; hPhe(3-Cl-4-CF3) = N[C@@H](CCc1ccc(C(F)(F)F)c(Cl)c1)C(=O)O; NPrPhe(4-CF3) = CCCN[C@@H](Cc1ccc(C(F)(F)F)cc1)C(=O)O; NEtPhe(4-CF3) = CCN[C@@H](Cc1ccc(C(F)(F)F)cc1)C(=O)O; NEtPhe(4-Me) = CCN[C@@H](Cc1ccc(C)cc1)C(=O)O; NMeGly(cPent) = CN[C@H](C(=O)O)C1CCCC1; αMeCha = C[C@](N)(CC1CCCCC1)C(=O)O; Hyp = O=C(O)[C@@H]1C[C@@H](O)CN1; NMeD = CN[C@@H](CC(=O)O)C(=O)O; NMeL = CN[C@@H](CC(C)C)C(=O)O; Ac6c = NC1(C(=O)O)CCCCC1; Morpholide = C1CN(*)CCO1; Ac5c = NC1(C(=O)O)CCCC1; Aib = CC(C)(N)C(=O)O; NEtG = CCNCC(=O)O; Sar = CNCC(=O)O

What was measured:
[1] = target: GDP-bound NRAS wild-type protein (Homo sapiens, UniProt P01111); test: Binding to NRAS by surface plasmon resonance (SPR), Single Cycle Kinetics
Chain of GDP-bound NRAS wild-type protein (P01111 whole entry): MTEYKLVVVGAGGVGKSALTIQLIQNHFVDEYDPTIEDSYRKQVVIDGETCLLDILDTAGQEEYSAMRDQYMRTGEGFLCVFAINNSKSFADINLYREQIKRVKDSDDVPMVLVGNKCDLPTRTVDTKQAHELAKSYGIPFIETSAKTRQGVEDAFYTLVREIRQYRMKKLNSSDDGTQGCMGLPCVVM

[2] = target: GDP-bound HRAS wild-type protein (Homo sapiens, UniProt P01112); test: Binding to HRAS by surface plasmon resonance (SPR), Single Cycle Kinetics
Chain of GDP-bound HRAS wild-type protein (P01112 whole entry): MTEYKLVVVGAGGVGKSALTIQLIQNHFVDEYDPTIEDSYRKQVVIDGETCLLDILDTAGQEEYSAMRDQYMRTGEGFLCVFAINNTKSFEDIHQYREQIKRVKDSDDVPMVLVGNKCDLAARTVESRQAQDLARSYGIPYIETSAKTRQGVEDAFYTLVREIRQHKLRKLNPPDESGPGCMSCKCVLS

[3] = SPR, GDP-bound wild-type proteins
[4] = KD ratio, GDP-bound NRAS wild-type vs GDP-bound KRAS wild-type, SPR
[5] = KD ratio, GDP-bound HRAS wild-type vs GDP-bound KRAS wild-type, SPR

Row | SMILES | NRAS/KRAS (ratio of KD value with respect to GDP-bound NRAS wild-type protein to KD value with respect to KRAS) ([1]; SPR) | HRAS/KRAS (ratio of KD value with respect to GDP-bound HRAS wild-type protein to KD value with respect to KRAS) ([2]; SPR) | NRAS/KRAS (ratio of KD for GDP-bound NRAS wild-type to KD for KRAS) ([1]; SPR) | HRAS/KRAS (ratio of KD for GDP-bound HRAS wild-type to KD for KRAS) ([2]; SPR) | also measured
1 | CCO[C@@H]1C[C@H]2C(=O)NC3(CCC3)C(=O)N(C)[C@@H](C3CCCC3)C(=O)N(C)[C@H](C(=O)N(C)C)CC(=O)N(C)[C@@H](Cc3cccnc3)C(=O)N[C@@H]([C@@H](C)CC)C(=O)N(C)CC(=O)N(C)[C@H]3CCCCCN(C3=O)[C@@H](Cc3ccc(C(F)(F)F)cc3)C(=O)N(C)CC(=O)N[C@@H](CCc3cc(F)c(C(F)(F)F)c(F)c3)C(=O)N2C1 [PP0673] | B (a compound having 3 or more and less than 10 is denoted as B) | B (a compound having 3 or more and less than 10 is denoted as B) |  |  | 
2 | CCC[C@H]1C(=O)N[C@@H]([C@@H](C)CC)C(=O)N(C2CC2)CC(=O)N(C)[C@H]2C/C=C\CCN(C2=O)[C@@H](Cc2ccc(C(F)(F)F)cc2)C(=O)N(C)CC(=O)N[C@@H](CCc2ccc(C(F)(F)F)c(OC)c2)C(=O)N2C[C@H](OCC)C[C@H]2C(=O)N(C)C2(CCC2)C(=O)N(C)[C@@H](C2CCCC2)C(=O)N(C)[C@H](C(=O)N2CCCCC2)CC(=O)N1C [PP3095, (2S,8S,12R,14S,20S,23S,27S,30S,36S,38Z)-20-cyclopentyl-32-cyclopropyl-12-ethoxy-8-[2-[3-methoxy-4-(trifluoromethyl)phenyl]ethyl]-4,16,19,22,26,35-hexamethyl-30-[(1S)-1-methylpropyl]-23-(piperidine-1-carbonyl)-27-propyl-2-[[4-(trifluoromethyl)phenyl]methyl]spiro[1,4,7,10,16,19,22,26,29,32,35-undecazatricyclo[34.5.1.0^10,14]dotetracont-38-ene-17,1′-cyclobutane]-3,6,9,15,18,21,25,28,31,34,42-undecone] |  |  |  |  | NRAS/KRAS (ratio of KD value with respect to GDP-bound NRAS wild-type protein to KD value with respect to KRAS) [1, 3]: A (a compound having 10 or more and less than 20 is denoted as A); HRAS/KRAS (ratio of KD value with respect to GDP-bound HRAS wild-type protein to KD value with respect to KRAS) [2, 3]: A (a compound having 10 or more and less than 20 is denoted as A)
3 | CCO[C@@H]1C[C@H]2C(=O)NC3(CCC3)C(=O)N(C)[C@@H](C3CCCC3)C(=O)N(C)[C@H](C(=O)N3CCOCC3)CC(=O)N(C)[C@@H](CC3CCCC3)C(=O)N[C@@H]([C@@H](C)CC)C(=O)N(C)CC(=O)N(C)[C@H]3CCCCN(C3=O)[C@@H](Cc3ccc(C(F)(F)F)cc3)C(=O)N(C)CC(=O)N[C@@H](CCc3cc(F)c(C(F)(F)F)c(F)c3)C(=O)N2C1 [PP0715] | C (A compound having a KD ratio of 0.1 or more and less than 3 is denoted as C) | B (a compound having 3 or more and less than 10 is denoted as B) |  |  | 
4 | CCO[C@@H]1C[C@H]2C(=O)NC3(CC(F)(F)C3)C(=O)N(C)[C@@H](C3CCCC3)C(=O)N3CCC[C@@H]3CC(=O)N(C)[C@@H](CC3CC3)C(=O)N[C@@H]([C@@H](C)CC)C(=O)N(C)CC(=O)N(C)[C@H]3C/C=C\CCN(C3=O)[C@@H](Cc3ccc(C(F)(F)F)cc3)C(=O)N(C)CC(=O)N[C@@H](CCc3cc(F)c(C(F)(F)F)c(F)c3)C(=O)N2C1 [PP1615] |  |  |  |  | NRAS/KRAS (ratio of KD value for NRAS to KD value for KRAS) [1, 4]: B (a compound having 3 or more and less than 10 is denoted as B); HRAS/KRAS (ratio of KD value for HRAS to KD value for KRAS) [2, 5]: B (a compound having 3 or more and less than 10 is denoted as B)
5 | CCO[C@@H]1C[C@H]2C(=O)NC3(CCC3)C(=O)N(C)[C@@H](C3CCCC3)C(=O)N(CCc3ccccc3)[C@H](C(=O)N(C)C)CC(=O)N(C)[C@@H](CC)C(=O)N[C@@H]([C@@H](C)CC)C(=O)N(C)CC(=O)N(C)[C@H]3CCCCCN(C3=O)[C@@H](Cc3ccc(C(F)(F)F)cc3)C(=O)N(C)CC(=O)N[C@@H](CCc3cc(F)c(C(F)(F)F)c(F)c3)C(=O)N2C1 [PP0637] | B (a compound having 3 or more and less than 10 is denoted as B) | B (a compound having 3 or more and less than 10 is denoted as B) |  |  | 
6 | CC[C@H](C)[C@@H]1NC(=O)[C@H](CC(C)C)N(C)C(=O)C[C@@H](C(=O)N2CCOCC2)N(C)C(=O)[C@H](C2CCCC2)N(C)C(=O)C(C)(C)NC(=O)[C@@H]2CCCN2C(=O)[C@H](CCc2ccc(C(F)(F)F)c(Cl)c2)NC(=O)CN(C)C(=O)[C@H](Cc2ccc(C(F)(F)F)cc2)N(CC)C(=O)CN(C)C(=O)CN(C)C1=O [PP0235] ([NMeL]I[Sar][Sar][NEtPhe(4-CF3)][Sar][hPhe(3-Cl-4-CF3)]P[Aib][NMeGly(cPent)][NMeD]-Morpholide; lactam N-11) |  |  | B (a compound having 3 or more and less than 10 is denoted as B) | C (A compound having a KD ratio of 0.1 or more and less than 3 is denoted as C) | 
7 | CCCN1C(=O)CN(C)C(=O)CN(C)C(=O)[C@H]([C@@H](C)CC)NC(=O)[C@H](CC(C)C)N(C)C(=O)C[C@@H](C(=O)N(C)C)NC(=O)[C@H](C2CCCC2)N(C)C(=O)C2(CCCC2)NC(=O)[C@@H]2C[C@@H](OCC)CN2C(=O)[C@H](CCc2ccc(C(F)(F)F)c(Cl)c2)NC(=O)CN(C)C(=O)[C@@H]1Cc1ccc(C(F)(F)F)cc1 [PP0359] ([NMeL]I[Sar][Sar][NPrPhe(4-CF3)][Sar][hPhe(3-Cl-4-CF3)][Hyp](Et)[Ac5c][NMeGly(cPent)]D-NMe2; lactam N-11) |  |  | B (a compound having 3 or more and less than 10 is denoted as B) | B (a compound having 3 or more and less than 10 is denoted as B) | 
8 | CC[C@H](C)[C@@H]1NC(=O)[C@H](CC(C)C)N(C)C(=O)C[C@@H](C(=O)N2CCOCC2)N(C)C(=O)[C@H](C2CCCC2)N(C)C(=O)C2(CCCC2)NC(=O)[C@@H]2CCCN2C(=O)[C@H](CCc2ccc(C(F)(F)F)c(Cl)c2)NC(=O)CN(CC)C(=O)[C@H](Cc2ccc(C)cc2)N(CC)C(=O)CN(C)C(=O)CN(C)C1=O [PP0028] ([NMeL]I[Sar][Sar][NEtPhe(4-Me)][NEtG][hPhe(3-Cl-4-CF3)]P[Ac5c][NMeGly(cPent)][NMeD]-Morpholide; lactam N-11) |  |  | C (A compound having a KD ratio of 0.1 or more and less than 3 is denoted as C) | C (A compound having a KD ratio of 0.1 or more and less than 3 is denoted as C) | 
9 | CCO[C@@H]1C[C@H]2C(=O)NC3(CCC3)C(=O)N(C)[C@@H](C3CCCC3)C(=O)N(C)[C@H](C)CC(=O)N(C)[C@@H](CC)C(=O)N[C@@H]([C@@H](C)CC)C(=O)N(C)CC(=O)N(C)[C@H]3C/C=C\CCN(C3=O)[C@@H](Cc3ccc(C(F)(F)F)cc3)C(=O)N(C)CC(=O)N[C@@H](CCc3cc(F)c(C(F)(F)F)c(F)c3)C(=O)N2C1 [PP1095] |  |  |  |  | NRAS/KRAS (ratio of KD value with respect to NRAS to KD value with respect to KRAS) [1, 4]: B (a compound having 3 or more and less than 10 is denoted as B); HRAS/KRAS (ratio of KD value with respect to HRAS to KD value with respect to KRAS) [2, 5]: B (a compound having 3 or more and less than 10 is denoted as B)
10 | CCC(CC)[C@H]1C(=O)N(C)[C@H](C(=O)N(C)C)CC(=O)N(C)[C@@H](COC)C(=O)N[C@@H]([C@@H](C)CC)C(=O)N(C)CC(=O)N(C)[C@H]2C/C=C\CCN(C2=O)[C@@H](Cc2ccc(C(F)(F)F)cc2)C(=O)N(C)CC(=O)N[C@@H](CCc2cc(F)c(C(F)(F)F)c(F)c2)C(=O)N2CC[C@H]2C(=O)NC2(CC(C)(C)C2)C(=O)N1C [PP2918] |  |  |  |  | NRAS/KRAS (ratio of KD value with respect to GDP-bound NRAS wild-type protein to KD value with respect to KRAS) ([1]; class symbols): AA (a compound having 20 or more is denoted as AA); HRAS/KRAS (ratio of KD value with respect to GDP-bound HRAS wild-type protein to KD value with respect to KRAS) ([2]; class symbols): A (a compound having 10 or more and less than 20 is denoted as A)
11 | CCCN1C(=O)CN(C)C(=O)CN(C)C(=O)[C@H]([C@@H](C)CC)NC(=O)[C@H](CC(C)C)N(C)C(=O)C[C@@H](C(=O)N(C)C)N(C)C(=O)[C@H](C2CCCC2)N(C)C(=O)[C@](C)(CC2CCCCC2)NC(=O)[C@@H]2CCCN2C(=O)[C@H](CCc2cc(F)c(C(F)(F)F)c(F)c2)NC(=O)CN(C)C(=O)[C@@H]1Cc1ccc(C(F)(F)F)cc1 [PP0739] ([NMeL]I[Sar][Sar][NPrPhe(4-CF3)][Sar][hPhe(3,5-F2-4-CF3)]P[αMeCha][NMeGly(cPent)][NMeD]-NMe2; lactam N-11) | B (a compound having 3 or more and less than 10 is denoted as B) | C (A compound having a KD ratio of 0.1 or more and less than 3 is denoted as C) |  |  | 
12 | CCCN1C(=O)CN(C)C(=O)CN(C)C(=O)[C@H]([C@@H](C)CC)NC(=O)[C@H](CC(C)C)N(C)C(=O)C[C@@H](C(=O)N2CCOCC2)N(C)C(=O)[C@H](C2CCCC2)N(C)C(=O)C2(CCCCC2)NC(=O)[C@@H]2CCCN2C(=O)[C@H](CCc2ccc(C(F)(F)F)c(Cl)c2)NC(=O)CN(C)C(=O)[C@@H]1Cc1ccc(C(F)(F)F)cc1 [PP0231] ([NMeL]I[Sar][Sar][NPrPhe(4-CF3)][Sar][hPhe(3-Cl-4-CF3)]P[Ac6c][NMeGly(cPent)][NMeD]-Morpholide; lactam N-11) |  |  | B (a compound having 3 or more and less than 10 is denoted as B) | C (A compound having a KD ratio of 0.1 or more and less than 3 is denoted as C) | 
13 | CCO[C@@H]1C[C@H]2C(=O)NC3(CCC3)C(=O)N(C)[C@@H](C3CCCC3)C(=O)N(C)[C@H](C(=O)N(C)C)CC(=O)N(C)[C@@H](CC(C)C)C(=O)N[C@@H]([C@@H](C)CC)C(=O)N(C)CC(=O)N(C)[C@H]3C/C=C\CCN(C3=O)[C@@H](Cc3ccc(C(F)(F)F)cc3)C(=O)N(C)CC(=O)N[C@@H](CCc3cc(F)c(C(F)(F)F)c(F)c3)C(=O)N2C1 [PP1107] |  |  |  |  | NRAS/KRAS (ratio of KD value with respect to NRAS to KD value with respect to KRAS) [1, 4]: A (a compound having 10 or more and less than 20 is denoted as A); HRAS/KRAS (ratio of KD value with respect to HRAS to KD value with respect to KRAS) [2, 5]: A (a compound having 10 or more and less than 20 is denoted as A)
